Laboratory results: US12139768B2, “Polymerase chain reaction primers and probes for Mycobacterium tuberculosis” (Rutgers, The State University of New Jersey, priority 2014, dated 2024)
Entries after “also recorded” stand apart in the source; their conditions may differ.

Key:
Type in all cases: cell-based, Mycobacterium tuberculosis
M.tb isolates [1] = test system: M.tb isolates
M.tb isolates [2] = test system: M.tb isolates; remark: listed apart in the source
M.tb isolates [3] = test system: M.tb isolates; remark: listed apart in the source

Row | SMILES | Susceptibility in LJ media (M.tb isolates [1]) | Total number of isolates Resistant (LJ) (M.tb isolates [1]) | Level of resistance (M.tb isolates [2]) | Total number of isolates Resistant (MGIT) (M.tb isolates [3])
1 | NCC[C@H](O)C(=O)N[C@@H]1C[C@H](N)[C@@H](O[C@H]2O[C@H](CN)[C@@H](O)[C@H](O)[C@H]2O)[C@H](O)[C@H]1O[C@H]1O[C@H](CO)[C@@H](O)[C@H](N)[C@H]1O [AMK, Amikacin] | susceptible | 90 | high level resistance; also recorded: no resistance to AMK | 
2 | NC[C@H]1O[C@H](O[C@H]2[C@H](O)[C@@H](O[C@H]3O[C@H](CO)[C@@H](O)[C@H](N)[C@H]3O)[C@H](N)C[C@@H]2N)[C@H](O)[C@@H](O)[C@@H]1O [KAN, Kanamycin] |  | 106 |  | 113
